Patent US20180141939A1, “SOLID FORMS OF A BET INHIBITOR” (Gilead Sciences, Inc., priority 2016, published 2018)
Converted amounts (≈) assume the structure as drawn.

Columns and labels:
Type in all cases: physicochemical
[1] = Dynamic vapor sorption (DVS) moisture uptake; settings: classification in words
[2] = Relative stability of solid forms (competitive slurries); settings: MeOH/IPA, MeOH/EtOAc or MeOH/IPAc, overnight slurry at RT
[3] = physchem
[4] = Susceptibility to oxidation in solution as a function of pH; settings: about 40° C., about 14 days
Text: In the presence of iron (II) ions, formation of a complex with iron is observed at high pH (FIG. 90). This complex can be reversed to yield Compound I by addition of a strong acid.

[5] = Ionization constants (pKa); settings: multiple ionization constants; read-out: weak base pKa values
[6] = Chemical stability in aqueous solutions as a function of pH and temperature; settings: for degradation in aqueous solution: about 20 weeks
Method: (FIG. 88(a)), or about 40° C. (FIG. 88(b)) over a period of about 20 weeks.

[7] = increased degradation at higher pH

hygroscopicity (DVS analysis) [1] | solubility ([3]; pH 2.4, aqueous buffer) | solubility ([3]; pH 8, aqueous buffer) | degradation in solution containing polysorbate 80 [4] | degradation in solution containing radical initiator [4] | degradation in solution containing hydrogen peroxide [4, 7] | degradation in solution containing iron (II) ions [4, 7] | pKa [5] | degradation in aqueous solution ([6]; about pH 1 to about pH 11, about 25° C.) | degradation in aqueous solution ([6]; about pH 1 to about pH 11, about 40° C.) | degradation in aqueous solution ([6]; about pH 1 to about pH 11, about 60° C., exception pH 5 (small amount of aluminum complex)) | Compound | relative stability in competitive slurries with Compound I phosphate Form I [2] | susceptibility to acid- or base-catalyzed degradation ([6]; aqueous solutions as a function of pH and temperature)
moderately hygroscopic |  |  |  |  |  |  |  |  |  |  | Cc1noc(C)c1-c1cc(C(O)(c2ccccn2)c2ccccn2)c2nc(C3CC3)[nH]c2c1 [Compound I phosphate Form II, (2-cyclopropyl-6-(3,5-dimethylisoxazol-4-yl)-1H-benzo[d]imidazol-4-yl)di(pyridin-2-yl)methanol] | less stable than Compound I phosphate Form I at ambient conditions | 
 | > 100000 µg/mL | 9.2 µg/mL (≈ 21 µM) | No significant degradation | No significant degradation | loss of Compound I | loss of Compound I | 2.9 | no significant degradation | no significant degradation | no significant degradation | Cc1noc(C)c1-c1cc(C(O)(c2ccccn2)c2ccccn2)c2nc(C3CC3)[nH]c2c1 [Compound I, (2-cyclopropyl-6-(3,5-dimethylisoxazol-4-yl)-1H-benzo[d]imidazol-4-yl)di(pyridin-2-yl)methanol] |  | not susceptible to acid- or base-catalyzed degradation
